From ChEMBL document CHEMBL1140151, “Alpha,beta-methylene-2'-deoxynucleoside 5'-triphosphates as noncleavable substrates for DNA polymerases: isolation, characterization, and stability studies of novel 2'-deoxycyclonucleosides, 3,5'-cyclo-dG, and 2,5'-cyclo-dT” (J Med Chem, 2008)
The source made the active and inactive calls. The rule behind the calls is not given here.

Key:
DNA polymerase beta [1] = molecular target: T1, DNA polymerase beta (Homo sapiens, UniProt P06746); test: Inhibition of human DNA polymerase beta
DNA polymerase beta [2] = molecular target: T1, DNA polymerase beta; test: Inhibition of human DNA polymerase beta assessed as inhibition of dCTP incorporation by gap filling assay

## Nc1nc2c(ncn2[C@H]2C[C@H](O)[C@@H](COP(=O)(O)CP(=O)(O)OP(=O)(O)O)O2)c(=O)[nH]1
DNA polymerase beta [1]
  Ki: 1000 nM

## Cc1cn([C@H]2C[C@H](O)[C@@H](COP(=O)(O)CP(=O)(O)OP(=O)(O)O)O2)c(=O)[nH]c1=O
DNA polymerase beta [1]
  Ki: 600 nM

## Nc1ccn([C@H]2C[C@H](O)[C@@H](COP(=O)(O)CP(=O)(O)OP(=O)(O)O)O2)c(=O)n1
DNA polymerase beta [1]
  Ki: 900 nM
DNA polymerase beta [2]
  Activity: Active

## Nc1ncnc2c1ncn2[C@H]1C[C@H](O)[C@@H](COP(=O)(O)CP(=O)(O)OP(=O)(O)O)O1
DNA polymerase beta [1]
  Ki: 5000 nM
